Results: patent US20170152263A1, “Substituted Indazole Compounds as IRAK4 Inhibitors” (AURIGENE DISCOVERY TECHNOLOGIES LIMITED, priority 2014, published 2017)
Counter-ions that a name gives are not always drawn.

Molecular target: T1, recombinant IRAK-4 kinase (Homo sapiens, UniProt Q9NWZ3)
T1 construct: purchased Millipore, USA
T1 sequence (Q9NWZ3 1-460): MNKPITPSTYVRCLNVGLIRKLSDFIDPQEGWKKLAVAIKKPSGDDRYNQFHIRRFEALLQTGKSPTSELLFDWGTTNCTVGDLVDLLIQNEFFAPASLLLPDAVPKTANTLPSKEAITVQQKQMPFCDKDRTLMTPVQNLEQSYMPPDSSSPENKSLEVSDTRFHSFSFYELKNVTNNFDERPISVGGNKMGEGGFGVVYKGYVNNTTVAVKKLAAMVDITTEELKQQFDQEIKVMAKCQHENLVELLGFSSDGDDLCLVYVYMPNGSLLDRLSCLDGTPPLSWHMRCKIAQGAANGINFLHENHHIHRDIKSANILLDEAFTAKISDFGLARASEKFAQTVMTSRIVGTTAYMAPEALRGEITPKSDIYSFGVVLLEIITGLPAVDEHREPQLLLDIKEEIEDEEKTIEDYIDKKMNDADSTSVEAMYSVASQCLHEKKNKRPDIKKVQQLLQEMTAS
Experiment: IRAK-4 biochemical assay (TR-FRET)
Conditions: IRAK-4 enzyme, 20 μM ATP; for inhibition at 1 µM: compound at 1 μM; for IC50: dose response; for inhibition at 0.1 µM: compound at 0.1 μM
Method: Compounds were tested for their potential to inhibit IRAK-4 enzyme in a TR-FRET assay using recombinant IRAK-4 kinase from Millipore, USA. The assay buffer was 50 mM Tris-HCl pH 7.5, 20 mM MgCl2, 1 mM EGTA, 2 mM DTT, 3 mM MnCl2 and 0.01% Tween 20.5 ng of IRAK-4 kinase was used for the assay. After pre-incubation of enzyme with test compound for 30 minutes at room temperature, a substrate mixture containing 100 nM Biotin Histone H3 (Millipore, USA) and 20 μM ATP (Sigma, USA) was added and the reaction was incubated for 30 min. Post incubation, the reaction was stopped by the addition of stop mix containing 40 mM EDTA, 1 nM of Europium-Anti-Phospho-Histone H3 (Ser10) antibody (Perkin Elmer, USA) and 20 nM SureLight Allophycocyanin-Streptavidin (Perkin Elmer, USA). The fluorescence emission at 615 nm and 665 nm were measured at an excitation of 340 nm and the percent inhibition was estimated from the ratio of the fluorescence intensities [(F665/F615)×10000]. […] The IC50 values were estimated by fitting the dose-response data to sigmoidal dose response (variable slope), curve fitting program using Graphpad Prism software Version 6.01.

With `Cc1cc(-c2nc(C(=O)Nc3cc4c(cnn4C)cc3N3CCCCC3)co2)ccn1` [Example 1, N-(1-methyl-5-(piperidin-1-yl)-1H-indazol-6-yl)-2-(2-methylpyridin-4-yl)oxazole-4-carboxamide hydrochloride] the inhibition at 1 µM was 96% and the IC50 was < 100 nM.

For `Cc1cc(-c2nc(C(=O)Nc3cc4nn(C)cc4cc3N3CCCCC3)co2)ccn1` [Example 2, N—(2-methyl-5-(piperidin-1-yl)-2H-indazol-6-yl)-2-(2-methylpyridin-4-yl)oxazole-4-carboxamide hydrochloride], the inhibition at 1 µM was 98% and the IC50 was < 100 nM.

With `Cn1cc2cc(N3CCCCC3)c(NC(=O)c3cccc(N4CC[C@H](O)C4)n3)cc2n1` [Example 3, (S)-6-(3-hydroxypyrrolidin-1-yl)—N—(2-methyl-5-(piperidin-1-yl)-2H-indazol-6-yl)picolinamide] the inhibition at 0.1 µM was 90%, the inhibition at 1 µM was 73% and the IC50 was > 250 nM.

For `Cn1ncc2cc(N3CCCCC3)c(NC(=O)c3coc(N4CC[C@H](N)C4)n3)cc21` [Example 4, (S)-2-(3-aminopyrrolidin-1-yl)—N—(1-methyl-5-(piperidin-1-yl)-1H-indazol-6-yl)oxazole-4-carboxamide], the inhibition at 1 µM was 84% and the IC50 was 100 to 250 nM.

With `Cn1cc2cc(N3CCCCC3)c(NC(=O)c3coc(N4CC[C@H](N)C4)n3)cc2n1` [Example 5, (S)-2-(3-aminopyrrolidin-1-yl)—N—(2-methyl-5-(piperidin-1-yl)-2H-indazol-6-yl)oxazole-4-carboxamide] the inhibition at 0.1 µM was 95%, the inhibition at 1 µM was 82% and the IC50 was > 250 nM.

With `Cn1cc2cc(N3CCCCC3)c(NC(=O)c3coc(N4CC[C@H](O)C4)n3)cc2n1` [Example 6, (S)-2-(3-hydroxypyrrolidin-1-yl)—N—(2-methyl-5-(piperidin-1-yl)-2H-indazol-6-yl)oxazole-4-carboxamide] the inhibition at 0.1 µM was 96%, the inhibition at 1 µM was 90% and the IC50 was 100 to 250 nM.

`Cn1cc2cc(N3CCCCC3)c(NC(=O)c3cccc(N4CC[C@H](N)C4)n3)cc2n1` [Example 7, (S)-6-(3-aminopyrrolidin-1-yl)—N—(2-methyl-5-(piperidin-1-yl)-2H-indazol-6-yl)picolinamide] was tested, and the inhibition at 0.1 µM was 93%, the inhibition at 1 µM was 83% and the IC50 was > 250 nM.

`Cn1ncc2cc(N3CCCCC3)c(NC(=O)c3cccc(N4CC[C@H](N)C4)n3)cc21` [Example 8, (S)-6-(3-aminopyrrolidin-1-yl)—N—(1-methyl-5-(piperidin-1-yl)-1H-indazol-6-yl)picolinamide] was tested, and the inhibition at 0.1 µM was 90%, the inhibition at 1 µM was 56% and the IC50 was > 250 nM.

With `Cn1ncc2cc(N3CCCCC3)c(NC(=O)c3cccc(N4CC[C@H](O)C4)n3)cc21` [Example 9, (S)-6-(3-hydroxypyrrolidin-1-yl)—N—(1-methyl-5-(piperidin-1-yl)-1H-indazol-6-yl)picolinamide] the inhibition at 0.1 µM was 83%, the inhibition at 1 µM was 78% and the IC50 was > 250 nM.

With `Cn1ncc2cc(N3CCCCC3)c(NC(=O)c3coc(N4CC[C@H](O)C4)n3)cc21` [Example 10, (S)-2-(3-hydroxypyrrolidin-1-yl)—N—(1-methyl-5-(piperidin-1-yl)-1H-indazol-6-yl)oxazole-4-carboxamide] the inhibition at 0.1 µM was 95%, the inhibition at 1 µM was 91% and the IC50 was < 100 nM.

In the case of `Cc1cc(-c2nc(C(=O)Nc3cc4c(cnn4C)cc3N3CC[C@H](O)C3)co2)ccn1` [Example 11, (S)—N—(5-(3-hydroxypyrrolidin-1-yl)-1-methyl-1H-indazol-6-yl)-2-(2-methylpyridin-4-yl)oxazole-4-carboxamide hydrochloride], the inhibition at 0.1 µM is reported as 95%, the inhibition at 1 µM is reported as 98% and the IC50 is reported as < 100 nM.

In the case of `Cc1cc(-c2nc(C(=O)Nc3cc4c(cnn4C)cc3N3CCCC(O)C3)co2)ccn1` (stereo not shown) [Example 12, N—(5-(3-hydroxypiperidin-1-yl)-1-methyl-1H-indazol-6-yl)-2-(2-methylpyridin-4-yl)oxazole-4-carboxamide hydrochloride], the inhibition at 0.1 µM is reported as 94% and the IC50 is reported as < 100 nM.

With `Cc1cc(-c2nc(C(=O)Nc3cc4nn(C)cc4cc3N3CCCC(O)C3)co2)ccn1` (stereo not shown) [Example 13, N—(5-(3-hydroxypiperidin-1-yl)-2-methyl-2H-indazol-6-yl)-2-(2-methylpyridin-4-yl)oxazole-4-carboxamide hydrochloride] the inhibition at 0.1 µM was 79% and the IC50 was < 100 nM.

`Cc1cc(-c2nc(C(=O)Nc3cc4nn(C)cc4cc3N3CCCC(F)C3)co2)ccn1` (stereo not shown) [Example 14, N—(5-(3-fluoropiperidin-1-yl)-2-methyl-2H-indazol-6-yl)-2-(2-methylpyridin-4-yl)oxazole-4-carboxamide] was tested, and the inhibition at 0.1 µM was 94%, the inhibition at 1 µM was 96% and the IC50 was < 100 nM.

In the case of `CC(=O)Nc1cc(-c2nc(C(=O)Nc3cc4c(cnn4C)cc3N3CC[C@H](O)C3)co2)ccn1` [Example 15], the inhibition at 0.1 µM is reported as 83%, the inhibition at 1 µM is reported as 99% and the IC50 is reported as < 100 nM.

In the case of `Cc1cc(-c2nc(C(=O)Nc3cc4c(cnn4C)cc3N3CCCC(F)C3)co2)ccn1` (stereo not shown) [Example 16, N—(5-(3-fluoropiperidin-1-yl)-1-methyl-1H-indazol-6-yl)-2-(2-methylpyridin-4-yl)oxazole-4-carboxamide], the inhibition at 0.1 µM is reported as 94%, the inhibition at 1 µM is reported as 99% and the IC50 is reported as < 100 nM.

In the case of `Cc1cc(-c2nc(C(=O)Nc3cc4c(cnn4C)cc3N3CCC(O)CC3)co2)ccn1` [Example 17, N—(5-(4-hydroxypiperidin-1-yl)-1-methyl-1H-indazol-6-yl)-2-(2-methylpyridin-4-yl)oxazole-4-carboxamide], the inhibition at 0.1 µM is reported as 93%, the inhibition at 1 µM is reported as 95% and the IC50 is reported as < 100 nM.

With `Cn1ncc2cc(N3CC[C@H](O)C3)c(NC(=O)c3coc(-c4ccnc(N)c4)n3)cc21` [Example 18, (S)-2-(2-aminopyridin-4-yl)—N—(5-(3-hydroxypyrrolidin-1-yl)-1-methyl-1H-indazol-6-yl)oxazole-4-carboxamide] the inhibition at 0.1 µM was 94%, the inhibition at 1 µM was 96% and the IC50 was < 100 nM.

For `Cc1cc(-c2nc(C(=O)Nc3cc4c(cnn4C)cc3N3CCC(F)CC3)co2)ccn1` [Example 19, N—(5-(4-fluoropiperidin-1-yl)-1-methyl-1H-indazol-6-yl)-2-(2-methylpyridin-4-yl)oxazole-4-carboxamide], the inhibition at 0.1 µM was 94%, the inhibition at 1 µM was 97% and the IC50 was < 100 nM.

In the case of `Cc1cc(-c2nc(C(=O)Nc3cc4c(cnn4C)cc3N3CCC(CO)CC3)co2)ccn1` [Example 20, N-(5-(4-(hydroxymethyl)piperidin-1-yl)-1-methyl-1H-indazol-6-yl)-2-(2-methylpyridin-4-yl)oxazole-4-carboxamide], the inhibition at 0.1 µM is reported as 96%, the inhibition at 1 µM is reported as 97% and the IC50 is reported as < 100 nM.

For `Cc1cc(-c2nc(C(=O)Nc3cc4c(cnn4C)cc3N3CC[C@H](O)C3)co2)cc(C)n1` [Example 21, (S)-2-(2,6-dimethylpyridin-4-yl)—N—(5-(3-hydroxypyrrolidin-1-yl)-1-methyl-1H-indazol-6-yl)oxazole-4-carboxamide], the inhibition at 0.1 µM was 41%, the inhibition at 1 µM was 84% and the IC50 was 100 to 250 nM.

For `Cc1cc(-c2nc(C(=O)Nc3cc4c(cnn4C)cc3N3CC[C@@H](O)C3)co2)ccn1` [Example 22, (R)—N—(5-(3-hydroxypyrrolidin-1-yl)-1-methyl-1H-indazol-6-yl)-2-(2-methylpyridin-4-yl)oxazole-4-carboxamide], the inhibition at 0.1 µM was 89%, the inhibition at 1 µM was 96% and the IC50 was < 100 nM.

For `Cn1ncc2cc(N3CC[C@H](O)C3)c(NC(=O)c3coc(-c4cccnc4N)n3)cc21` [Example 23, (S)-2-(2-aminopyridin-3-yl)—N—(5-(3-hydroxypyrrolidin-1-yl)-1-methyl-1H-indazol-6-yl)oxazole-4-carboxamide], the inhibition at 0.1 µM was 81%, the inhibition at 1 µM was 95% and the IC50 was < 100 nM.

With `Cn1ncc2cc(N3CC[C@@H](O)C3)c(NC(=O)c3cccc(N4CC[C@H](O)C4)n3)cc21` [Example 24, 6-((S)-3-hydroxypyrrolidin-1-yl)—N—(5-((R)-3-hydroxypyrrolidin-1-yl)-1-methyl-1H-indazol-6-yl)picolinamide] the inhibition at 0.1 µM was 33%, the inhibition at 1 µM was 80% and the IC50 was 100 to 250 nM.

With `Cn1ncc2cc(N3CC[C@H](O)C3)c(NC(=O)c3cccc(N4CC[C@H](O)C4)n3)cc21` [Example 25, 6-((S)-3-hydroxypyrrolidin-1-yl)—N—(5-((S)-3-hydroxypyrrolidin-1-yl)-1-methyl-1H-indazol-6-yl)picolinamide] the inhibition at 0.1 µM was 24%, the inhibition at 1 µM was 71% and the IC50 was > 250 nM.
